The values below come from paper PMC10755728, “Inhibitors of the Elastase LasB for the Treatment of Pseudomonas aeruginosa Lung Infections” (ACS Central Science, 2023).

The term inhibition denotes the drop in the measured response relative to a control, in per cent. One may read the chromatographic logD as a lipophilicity value derived from retention on a column. Lower therefore signals a more hydrophilic compound. Usually microsomal CLint stands for the capacity of the preparation to metabolise the compound, expressed as a volume cleared per time. High values mean faster metabolism, low ones greater metabolic stability. By Papp is commonly meant the rate of passage across a membrane or cell layer, normalised by area and donor concentration. A word on the IC50: it is the concentration that gives 50% inhibition.

Like-named read-outs stand apart in the source and are kept apart here. Some results are limits rather than exact numbers.

The conditions of data set [1]: mouse, in vivo.
Data set [2] addresses T1, MMP-1 (Homo sapiens, UniProt P03956).
T1 construct: purchased AnaSpec (Fremont, CA, USA)
T1 sequence (P03956 100-469): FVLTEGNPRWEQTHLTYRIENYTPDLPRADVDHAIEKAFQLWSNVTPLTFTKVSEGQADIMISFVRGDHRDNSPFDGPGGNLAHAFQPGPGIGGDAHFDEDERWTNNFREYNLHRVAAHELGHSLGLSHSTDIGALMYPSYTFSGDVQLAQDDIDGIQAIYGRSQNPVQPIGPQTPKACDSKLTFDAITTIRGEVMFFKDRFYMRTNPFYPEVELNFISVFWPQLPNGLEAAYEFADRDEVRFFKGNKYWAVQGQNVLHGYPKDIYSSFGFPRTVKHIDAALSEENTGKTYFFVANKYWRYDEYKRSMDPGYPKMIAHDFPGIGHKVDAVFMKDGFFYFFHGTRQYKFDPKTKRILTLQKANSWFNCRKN
The experiment in a line: MMP-1 inhibition assay. The data set is classed as biochemical. The conditions noted are these: 100 μM; read-out: % inhibition MMP-1.

Data set [3] addresses T2, MMP-3 (Homo sapiens, UniProt P08254).
T2 construct: purchased AnaSpec (Fremont, CA, USA)
The experiment in a line: MMP-3 inhibition assay. The conditions noted are these: 100 μM; read-out: % inhibition MMP-3. The data set is classed as biochemical.

Data set [4] in a line: Lipophilicity determination (LogD7.4, HPLC-MS). The class given is physicochemical.
Description: Lipophilicity determination. LogD7.4 was analyzed using an HPLC−MS based method.50 The retention time of 12 compounds with known LogD7.4 was determined and plotted toward their LogD7.4. Linear regression was used to determine the LogD7.4 of unknown compounds. Analysis was performed using a Dionex Ultimate 3000 HPLC system coupled to a TSQ Quantum Access MAX (Thermo Fisher, Dreieich, Germany) with the following conditions: EC150/2 NUCLEODUR C18 Pyramid column, 5 μM (Macherey Nagel, Düren, Germany); eluent A: 50 mM NH4OAc pH 7.4, eluent B: acetonitrile, and flow: 0.6 mL/min.
Data set [5] is described as follows: Metabolic stability in mouse liver S9 fraction. The class given is in vitro ADME.
Data set [6] relates to HepG2. Conditions: human, 48 h, 100 µM.
Description: (§1) Culturing of HepG2, A549 and HEK293 cells. The human hepatocellular carcinoma cell line HepG2, the lung adenocarcinoma cell line A549 and Human Embryonic (HEK) 293 cells were cultured in Dulbecco's Modified Eagle Medium (DMEM), containing 10% Fetal Bovine Serum
(§2) (FBS) and 1% penicillin-streptomycin mixture. Cells were maintained according to standard cell
(§3) Cytotoxicity assay. An MTT-based assay was employed to evaluate the viability of HepG2,
(§4) HEK293 and A549 cells after challenge with selected LasB inhibitors and performed as described
Data set [7] concerns the target T3, COX-1 (Ovis aries, UniProt P05979).
T3 construct: purchased Abcam (Cambridge, UK)
T3 sequence (P05979 25-600): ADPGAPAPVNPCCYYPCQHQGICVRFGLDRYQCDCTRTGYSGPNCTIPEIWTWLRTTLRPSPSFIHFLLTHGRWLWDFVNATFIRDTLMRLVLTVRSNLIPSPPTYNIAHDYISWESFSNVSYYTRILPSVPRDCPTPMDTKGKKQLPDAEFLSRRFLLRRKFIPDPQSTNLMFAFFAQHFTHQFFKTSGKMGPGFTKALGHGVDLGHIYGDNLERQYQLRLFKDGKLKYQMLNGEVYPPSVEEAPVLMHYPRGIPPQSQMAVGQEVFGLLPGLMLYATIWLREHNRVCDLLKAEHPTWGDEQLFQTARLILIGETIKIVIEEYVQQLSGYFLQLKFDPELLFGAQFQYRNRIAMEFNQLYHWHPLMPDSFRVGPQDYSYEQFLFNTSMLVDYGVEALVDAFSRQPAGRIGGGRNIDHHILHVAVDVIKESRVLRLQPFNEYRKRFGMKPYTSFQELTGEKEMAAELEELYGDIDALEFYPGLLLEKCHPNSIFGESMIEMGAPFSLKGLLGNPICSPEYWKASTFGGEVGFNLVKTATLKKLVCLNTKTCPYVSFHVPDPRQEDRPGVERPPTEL
Put plainly: Fluorometric COX-1 inhibitor assay. The class given is biochemical, human.

Data set [8] addresses T4, HDAC-3 (Homo sapiens, UniProt O15379).
T4 construct: purchased Sigma-Aldrich (Saint Louis, MO)
The experiment in a line: HDAC-3 inhibitor screening kit. The class given is biochemical.

Data set [9] addresses T5, MMP-2 (Homo sapiens, UniProt P08253).
T5 construct: purchased AnaSpec (Fremont, CA, USA)
T5 sequence (P08253 110-660): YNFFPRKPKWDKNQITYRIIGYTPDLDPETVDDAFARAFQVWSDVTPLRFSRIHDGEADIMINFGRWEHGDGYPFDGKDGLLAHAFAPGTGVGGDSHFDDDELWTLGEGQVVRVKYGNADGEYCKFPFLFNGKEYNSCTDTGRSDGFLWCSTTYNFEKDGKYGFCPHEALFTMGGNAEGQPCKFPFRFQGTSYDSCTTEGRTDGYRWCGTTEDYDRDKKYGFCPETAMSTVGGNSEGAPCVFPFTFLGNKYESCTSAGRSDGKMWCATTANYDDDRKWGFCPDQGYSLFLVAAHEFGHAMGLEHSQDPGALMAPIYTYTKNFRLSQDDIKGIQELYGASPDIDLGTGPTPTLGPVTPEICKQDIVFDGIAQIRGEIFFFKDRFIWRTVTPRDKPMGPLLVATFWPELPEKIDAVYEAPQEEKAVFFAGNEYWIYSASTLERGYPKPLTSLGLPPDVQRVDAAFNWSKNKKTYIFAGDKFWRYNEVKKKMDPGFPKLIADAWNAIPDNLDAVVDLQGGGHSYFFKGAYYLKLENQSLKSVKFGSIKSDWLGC
Put plainly: MMP-2 inhibition assay. The data set is classed as biochemical. The conditions noted are these: 100 μM; read-out: % inhibition MMP-2.

The nature of data set [10]: Metabolic stability in human liver S9 fraction. The data set is classed as in vitro ADME.
Data set [11] addresses T6, HDAC-8 (Homo sapiens, UniProt Q9BY41).
T6 construct: purchased Sigma-Aldrich (Saint Louis, MO)
T6 sequence (Q9BY41 1-377): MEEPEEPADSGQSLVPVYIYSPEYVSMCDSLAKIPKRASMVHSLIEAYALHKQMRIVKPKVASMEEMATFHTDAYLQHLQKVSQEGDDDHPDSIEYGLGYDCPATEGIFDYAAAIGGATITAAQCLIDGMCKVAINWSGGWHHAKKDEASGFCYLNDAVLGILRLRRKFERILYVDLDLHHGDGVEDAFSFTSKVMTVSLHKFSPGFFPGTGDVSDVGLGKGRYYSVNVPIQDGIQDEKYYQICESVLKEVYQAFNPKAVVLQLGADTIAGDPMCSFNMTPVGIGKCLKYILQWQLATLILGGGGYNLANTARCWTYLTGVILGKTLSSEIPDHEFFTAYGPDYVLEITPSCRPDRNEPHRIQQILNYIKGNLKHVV
The experiment in a line: HDAC-8 inhibitor screening kit. The data set is classed as biochemical.

For data set [12], the system named is HEK293. Conditions: human, 48 h, 100 µM.
Description: as §1, §2, §3, §4
Data set [13] has as its target T7, LasB (Pseudomonas aeruginosa, UniProt Q02RJ6).
T7 construct: made in house
Put plainly: biochemical. The data set is classed as biochemical.

Data set [14] in a line: Calu-3 permeability. The data set is classed as in vitro ADME. Conditions: human.
Data set [15] in a line: Plasma stability, mouse. The conditions noted are these: for half-life at 1 μM: mouse plasma, read-out: Plasma T1/2 Mouse. The data set is classed as in vitro ADME.
The nature of data set [16]: Microsomal stability, mouse liver microsomes. The class given is in vitro ADME. Conditions: C57BL6, mouse, pooled liver microsomes.
Data set [17] in a line: Microsomal stability, rat liver microsomes. The data set is classed as in vitro ADME. Conditions: Wistar, pooled liver microsomes.
Data set [18] addresses T8, TACE (Homo sapiens, UniProt P78536).
T8 construct: purchased Sigma-Aldrich (Saint Louis, MO)
The experiment in a line: TACE inhibitor screening kit. The class given is biochemical. The conditions noted are these: 100 μM; read-out: % inhibition TACE.

In data set [19] the test system is A549 cells treated with P. aeruginosa PAO1 and PA14 supernatants. The experiment in a line: A549 cells challenged with P. aeruginosa culture supernatants. The conditions noted are these: PAO1 or PA14 csn.
Description: Cells were maintained according to standard cell
PA14 csn production. The csn of wt PA14 and ΔlasB PA14 was produced as we previously
Validation of the effect of LasB inhibitors on A549 cells in vitro. The experiment was performed
as described previously.32 The Picrosirius red assay was performed by washing the csn-challenged
cells (± inhibitor) 3x with PBS followed by an incubation with Bouin solution (Sigma) at RT for
20 min. The cells were incubated with 0.1% Picrosirius red dye (ab150681) at RT for 2 h. Then,
they were washed once with 0.01 N HCl, and the matrix was dissolved in 0.01 N NaOH. The
absorption was measured at 570 nm using a PHERAstar plate reader (BMG Labtech). By dividing
the absorbance of each sample by the absorbance of the healthy sample, the relative collagen
quantity was determined. For each condition, the experiment was performed three times. To
determine the rescue of A549 cells treated with 5% wt PA14 csn using our compounds, the LasB
inhibitors were used at 2, 0.5, 0.1 and 0.05 µM. The compounds were incubated in F12K medium,
Cell detachment was then evaluated, and a Trypan Blue cell
cells/well were seeded into a flat bottom 96-well plate (Corning™ Costar™) and incubated at 37
were tested against 10% (v/v) P. aeruginosa PAO1 csn diluted in DMEM starting from 10 µM
and 20 µM, respectively. Compound was initially dissolved in DMSO, and a low final assay
concentration of 0.5% (v/v) was applied to minimize the proteolytic effect of DMSO on the
bacterial culture supernatant. In addition, cells were challenged with 10% (v/v) of ΔlasB PAO1 to
In data set [20] the test system is 3D lung organoids. The experiment in a line: Lung organoid assay. The class given is cell-based, human.
Data set [21] is described as follows: Plasma stability, minipig. The data set is classed as in vitro ADME. Conditions: Göttingen, pooled plasma, species profiling, read-out: Plasma T1/2 Minipig (Göttingen).
A short description of data set [22]: Plasma stability, rat. The class given is in vitro ADME. The conditions noted are these: Wistar, pooled plasma, species profiling, read-out: Plasma T1/2 Rat (Wistar).
The nature of data set [23]: Microsomal stability, minipig liver microsomes. The class given is in vitro ADME. Conditions: Göttingen, pooled liver microsomes.
In data set [24] the test system is P. aeruginosa PA14. Put plainly: Bacterial growth inhibition assay. The class given is cell-based, Pseudomonas aeruginosa. Conditions: Pseudomonas aeruginosa, PA14; 100 µM compound concentration; read-out: Percent (%) growth inhibition of P. aeruginosa PA14.
Description: Bacterial growth inhibition assay. Assays regarding the determination of the MIC were
performed as described recently for P. aeruginosa PA14.58
In data set [25] the test system is Eurofins SafetyScreen44 panel. The experiment in a line: Off-target SafetyScreen44 panel. Conditions: 10 μM. An excerpt: Then, we assessed potential additional safety liabilities of 4a and 4b using the Eurofins SafetyScreen44 panel to identify the most important off-target interactions at an early stage. […] Furthermore, to gain a deeper insight into the potential clinical applicability, we investigated the toxicity of compounds in vivo on zebrafish embryos.
Off-Target Safety Screen44TM Panel.
Eurofins Cerep, according to their guidelines.
their Standard Operating Procedures.
Zebrafish embryo toxicity.

Data set [26] deals with ColH-PD (Hathewaya histolytica, UniProt Q46085). Put plainly: biochemical. The class given is biochemical, Clostridium histolyticum. Conditions: read-out: % inhibition ColH-PD @1 µM.
Sequence of ColH-PD (Q46085 331-721 limits assumed): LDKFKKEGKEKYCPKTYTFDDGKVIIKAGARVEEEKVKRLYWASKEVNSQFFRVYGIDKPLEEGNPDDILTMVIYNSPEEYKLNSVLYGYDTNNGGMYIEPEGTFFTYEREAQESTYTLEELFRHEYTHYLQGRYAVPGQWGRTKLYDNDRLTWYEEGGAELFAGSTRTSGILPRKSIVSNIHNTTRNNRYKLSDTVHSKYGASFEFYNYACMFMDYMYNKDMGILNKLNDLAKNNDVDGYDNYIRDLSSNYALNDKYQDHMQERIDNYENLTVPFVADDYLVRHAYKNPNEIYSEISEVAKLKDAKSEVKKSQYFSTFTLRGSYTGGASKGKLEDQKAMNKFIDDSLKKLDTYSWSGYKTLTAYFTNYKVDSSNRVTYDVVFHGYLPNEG
The test system of data set [27] is zebrafish embryos. The experiment in a line: Zebrafish embryo toxicity.
Description: Zebrafish embryo toxicity. The experiment was performed according to a procedure described
in the literature55 with minor modifications using zebrafish embryos of the AB wild-type line at 1
day post fertilization (dpf).
The subject of data set [28] is LasB. The data set is classed as in vivo, mouse. Conditions: compared to the vehicle group; 4b 10 mg/kg TID, levofloxacin 25 mg/kg.
For data set [29], the system named is P. aeruginosa DSM-1117. The experiment in a line: Neutropenic lung infection model (PD study). The conditions noted are these: neutropenic mice, 24 h; 4b 10 mg/kg TID nebulized, levofloxacin 25 mg/kg IP.
Description: For the therapeutic neutropenic
pneumonia model, female CD-1 mice, 8-weeks-old, (Charles River, Germany) were rendered
neutropenic by administration of 150 mg/kg and 100 mg/kg cyclophosphamide i.p. on day –4 and
–1, respectively. The inoculum was prepared as follows: on day -1 the P. aeruginosa strain DSM-
single colony was inoculated into LB medium (diluted 1:6 in water) containing 0.01% mucin and
incubated at 120 rpm and 37 °C.
washed twice in 0.9 % NaCl-solution. Then they were adjusted to an OD of 10. For infection with
P. aeruginosa an inoculum of 1.2x10^9 cfu/mL was used. At d0 mice were infected by nebulization
using an Aeroneb® nebulizer (Kent Scientific) of 20 µL 1.2x10^9 CFU/ml P. aeruginosa DSM-
To control bacterial burden after nebulization, two animals were used as inoculum control
group. The following groups were used: (1) vehicle control group, (2) levofloxacin group wit h
mg/kg inhaled TID (t= 2, 6 and 10 h) combined with levofloxacin at 25 mg/kg IP QD (t= 2 h p.i.).
After isolation of blood, lung was
removed, weighed, and homogenized in 3 mL 0.9% NaCl. For de termination of CFUs, suspensions
of homogenized organs were serially diluted, plated on agar plates and incubated overnight at 37
°C. CFUs were determined by manual counting.

T7 sequence (Q02RJ6 198-498): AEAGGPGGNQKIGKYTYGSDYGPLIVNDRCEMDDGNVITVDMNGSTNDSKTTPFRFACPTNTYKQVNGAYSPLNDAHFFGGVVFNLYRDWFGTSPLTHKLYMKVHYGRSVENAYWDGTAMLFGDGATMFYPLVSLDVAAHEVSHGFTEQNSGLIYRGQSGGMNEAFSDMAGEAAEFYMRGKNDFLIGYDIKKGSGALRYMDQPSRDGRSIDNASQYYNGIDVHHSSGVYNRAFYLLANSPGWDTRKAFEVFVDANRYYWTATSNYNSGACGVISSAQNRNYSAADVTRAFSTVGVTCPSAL
T4 sequence (O15379 whole entry): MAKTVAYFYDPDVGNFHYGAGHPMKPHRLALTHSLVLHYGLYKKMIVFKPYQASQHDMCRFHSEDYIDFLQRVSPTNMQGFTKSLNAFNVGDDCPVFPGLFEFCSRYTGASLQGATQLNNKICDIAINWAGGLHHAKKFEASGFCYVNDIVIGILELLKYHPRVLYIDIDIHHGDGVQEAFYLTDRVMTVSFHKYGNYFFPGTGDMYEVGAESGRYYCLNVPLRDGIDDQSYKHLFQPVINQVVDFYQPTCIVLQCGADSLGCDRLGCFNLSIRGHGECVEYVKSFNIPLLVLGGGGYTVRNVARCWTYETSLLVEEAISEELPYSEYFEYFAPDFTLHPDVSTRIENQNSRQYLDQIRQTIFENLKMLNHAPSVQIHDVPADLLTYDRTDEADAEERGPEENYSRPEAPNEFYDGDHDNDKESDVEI
T4 sequence (Q9Y618 395-489 partner limits assumed): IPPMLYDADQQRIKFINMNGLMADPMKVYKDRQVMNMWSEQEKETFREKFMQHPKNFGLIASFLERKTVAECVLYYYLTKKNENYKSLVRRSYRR
T8 sequence (P78536 215-824): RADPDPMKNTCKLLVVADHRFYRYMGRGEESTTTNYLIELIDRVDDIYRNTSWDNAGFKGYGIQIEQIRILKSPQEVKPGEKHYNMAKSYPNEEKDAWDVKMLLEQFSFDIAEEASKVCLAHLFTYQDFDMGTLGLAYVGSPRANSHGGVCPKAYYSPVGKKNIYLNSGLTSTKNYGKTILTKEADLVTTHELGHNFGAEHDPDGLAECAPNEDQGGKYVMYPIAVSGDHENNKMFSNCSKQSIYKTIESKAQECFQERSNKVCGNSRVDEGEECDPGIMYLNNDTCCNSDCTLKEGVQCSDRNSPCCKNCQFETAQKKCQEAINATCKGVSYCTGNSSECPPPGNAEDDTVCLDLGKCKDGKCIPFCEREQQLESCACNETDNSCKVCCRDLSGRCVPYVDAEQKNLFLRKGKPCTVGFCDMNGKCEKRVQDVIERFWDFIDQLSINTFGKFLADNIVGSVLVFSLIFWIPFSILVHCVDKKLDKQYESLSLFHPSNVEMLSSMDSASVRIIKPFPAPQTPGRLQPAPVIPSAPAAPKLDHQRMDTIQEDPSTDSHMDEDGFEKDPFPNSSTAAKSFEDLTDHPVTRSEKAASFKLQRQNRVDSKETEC
T2 sequence (P08254 100-477): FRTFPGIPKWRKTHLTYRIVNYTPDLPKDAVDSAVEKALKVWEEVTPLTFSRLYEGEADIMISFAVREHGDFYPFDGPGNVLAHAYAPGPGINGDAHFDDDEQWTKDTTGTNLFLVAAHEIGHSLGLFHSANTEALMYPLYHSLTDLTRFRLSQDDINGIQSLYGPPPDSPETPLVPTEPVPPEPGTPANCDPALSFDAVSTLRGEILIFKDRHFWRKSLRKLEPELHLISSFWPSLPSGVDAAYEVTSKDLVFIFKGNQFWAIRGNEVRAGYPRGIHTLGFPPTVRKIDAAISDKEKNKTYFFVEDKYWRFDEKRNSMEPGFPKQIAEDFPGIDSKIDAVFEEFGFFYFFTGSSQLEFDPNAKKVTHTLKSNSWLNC

Consider `Cc1ccc(NC(=O)C(CC(C)C)C(=O)NO)cc1` (stereo not shown) [Compound 3g], for which the “detection in ELF and lung tissue” value in [1] is “not detected”. Besides, the inhibition at 100 µM in data set [2] is 29 ± 3%; in data set [3], 16 ± 7%; in data set [7], less than 10%; in data set [8], less than 10%; in [9], 26 ± 2%; in data set [11], less than 10%. In data set [4] (pH 7.4, chromatographic), this molecule came in with a logD7.4 of 1.81. The molecule further gave a chromatographic logD in [4] (pH 7.4, pH 7.4, chromatographic) greater than 1.8. The intrinsic clearance (microsomal CLint) at 1 μM was 64 ± 10 µL/min/mg in data set [5] and less than 5.8 µL/min/mg in [10]. Moreover, the “% growth inhibition HepG2” value in data set [6] is on record as 26 ± 11%. Moreover, the “% growth inhibition HEK293” value in [12] is listed as 12 ± 6%. Moreover, in data set [13], the “fold more potent compared to the best phosphonate inhibitor” value is listed as 2 fold. The “fold improvement of LasB activity compared to thiol hit 1” value in [13] (vs 1) was found to be 30 fold. Moreover, the Papp at 300 min in data set [14] is 9.8 ± 2.6 ×10⁻⁶ cm/s. Moreover, the half-life at 1 μM in data set [15] is greater than 2.5 h.
Turning to `Cc1ccc(NC(=O)C(CC(C)C)P(=O)(O)O)cc1` (stereo not shown) [Compound 4a], the intrinsic metabolic clearance (microsomal CLint) in [16], in data set [17] and in data set [23] was less than 11.6 µL/min/mg throughout. Moreover, the inhibition at 100 µM in data set [18], in [7], in data set [8], in [11] and in data set [24] was less than 10% throughout. In addition, the “LasB-related cytotoxicity in csn-treated A549 cells” value in [19] was “dose-dependent reduction of LasB-related cytotoxicity”. Moreover, the “viability of lung organoids challenged with 5% PA14 csn” value in data set [20] (5% PA14 csn, 48 h, MTT) was “improved in a dose-dependent manner”. Moreover, the “toxic effects on nontreated lung organoids” value in data set [20] (concentrations tested up to 100 μM) is “did not have significant toxic effects”. The half-life was greater than 4 h in [21]; greater than 4 h in data set [22]; greater than 4 h in data set [15] (C57BL6, mouse, pooled plasma, species profiling, read-out: Plasma T1/2 Mouse (C57BL6)). The intrinsic clearance (microsomal CLint) at 1 μM in data set [5] and in data set [10] was less than 5.8 µL/min/mg in each case. Besides, the IC50 worked out at 51.2 ± 6.7 nM in [13] (FRET-based assay, read-out: LasB IC50) and 123 ± 56 nM in data set [13] (LasB IC50 in presence of 1% pulmonary surfactant, 1% pulmonary surfactant). The half-life at 1 μM in data set [15] is greater than 2.5 h. Also, the “inhibition of SafetyScreen44 targets” value in [25] is recorded as “no significant inhibition”. In [26], the inhibition at 1 µM is less than 10%. The Survival rate in [27] (12.5 µM), in [27] (25 µM), in data set [27] (50 µM) and in data set [27] (100 μM) was 100% in each case. Also, the Screening observations in data set [27] (12.5 µM, 3 dpf) is listed as 1 edema; in data set [27] (12.5 µM, 4 dpf) it was 1 edema; in [27] (12.5 µM, 5 dpf) it was 1 nsb, 1 edema; in data set [27] (50 µM, 3 dpf), 1 edema; in data set [27] (50 µM, 4 dpf), 1 edema; in data set [27] (50 µM, 5 dpf), 1 nsb, 1 edema. In data set [27] (100 µM, 5 dpf), this molecule displayed a Screening observations of 3 nsb. For the same molecule, in data set [27] (zebrafish embryos), the “maximum tolerated concentration (MTC)” value was no less than 100 µM.
Take `C[C@H]1COc2c(N3CCN(C)CC3)c(F)cc3c(=O)c(C(=O)O)cn1c23` [levofloxacin, reference compound]: in data set [28], the “LasB protein levels in blood” value is given as “clear reduction”. The “effect on bacterial burden (CFU) in lung” value in [29] is “reduced the bacterial burden back to stasis”.
